# Reference: paper PMC3383692, “Characterization of Plasmodium falciparum Adenylyl Cyclase-β and Its Role in Erythrocytic Stage Parasites” (PLoS ONE, 2012)
# Like-named read-outs stand apart in the source and are kept apart here.
# T1: PfACβ (adenylyl cyclase-β) (Plasmodium falciparum, UniProt C0H4R1)
# T1 construct: gene PF3D7_0802600; GST-PfACβ1-785 (catalytic domains, AA 1–785)
# T1 sequence (C0H4R1 1-785): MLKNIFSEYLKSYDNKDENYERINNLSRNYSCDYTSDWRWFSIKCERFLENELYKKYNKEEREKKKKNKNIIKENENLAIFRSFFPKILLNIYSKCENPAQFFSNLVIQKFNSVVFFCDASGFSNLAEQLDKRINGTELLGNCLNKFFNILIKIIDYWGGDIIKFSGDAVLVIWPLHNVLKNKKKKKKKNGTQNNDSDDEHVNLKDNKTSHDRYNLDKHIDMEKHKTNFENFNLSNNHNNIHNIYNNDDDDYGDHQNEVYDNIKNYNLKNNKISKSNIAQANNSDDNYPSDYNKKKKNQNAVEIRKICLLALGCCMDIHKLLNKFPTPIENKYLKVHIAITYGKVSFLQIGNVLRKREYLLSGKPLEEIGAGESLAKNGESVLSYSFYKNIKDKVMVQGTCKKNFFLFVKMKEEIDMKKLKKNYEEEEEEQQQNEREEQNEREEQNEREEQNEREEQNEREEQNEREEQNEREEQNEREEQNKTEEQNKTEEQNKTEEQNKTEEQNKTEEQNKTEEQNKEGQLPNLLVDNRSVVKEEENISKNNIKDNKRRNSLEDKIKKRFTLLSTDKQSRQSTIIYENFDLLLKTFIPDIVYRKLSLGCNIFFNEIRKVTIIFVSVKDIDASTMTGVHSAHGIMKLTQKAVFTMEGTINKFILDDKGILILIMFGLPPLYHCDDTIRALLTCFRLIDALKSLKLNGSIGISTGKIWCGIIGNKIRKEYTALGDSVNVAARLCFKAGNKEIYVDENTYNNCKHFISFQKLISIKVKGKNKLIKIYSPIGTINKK
# T2: PfACα (Plasmodium falciparum, UniProt Q8I7A1)
# T2 construct: gene ac1
# T2 sequence (Q8I7A1 1-884): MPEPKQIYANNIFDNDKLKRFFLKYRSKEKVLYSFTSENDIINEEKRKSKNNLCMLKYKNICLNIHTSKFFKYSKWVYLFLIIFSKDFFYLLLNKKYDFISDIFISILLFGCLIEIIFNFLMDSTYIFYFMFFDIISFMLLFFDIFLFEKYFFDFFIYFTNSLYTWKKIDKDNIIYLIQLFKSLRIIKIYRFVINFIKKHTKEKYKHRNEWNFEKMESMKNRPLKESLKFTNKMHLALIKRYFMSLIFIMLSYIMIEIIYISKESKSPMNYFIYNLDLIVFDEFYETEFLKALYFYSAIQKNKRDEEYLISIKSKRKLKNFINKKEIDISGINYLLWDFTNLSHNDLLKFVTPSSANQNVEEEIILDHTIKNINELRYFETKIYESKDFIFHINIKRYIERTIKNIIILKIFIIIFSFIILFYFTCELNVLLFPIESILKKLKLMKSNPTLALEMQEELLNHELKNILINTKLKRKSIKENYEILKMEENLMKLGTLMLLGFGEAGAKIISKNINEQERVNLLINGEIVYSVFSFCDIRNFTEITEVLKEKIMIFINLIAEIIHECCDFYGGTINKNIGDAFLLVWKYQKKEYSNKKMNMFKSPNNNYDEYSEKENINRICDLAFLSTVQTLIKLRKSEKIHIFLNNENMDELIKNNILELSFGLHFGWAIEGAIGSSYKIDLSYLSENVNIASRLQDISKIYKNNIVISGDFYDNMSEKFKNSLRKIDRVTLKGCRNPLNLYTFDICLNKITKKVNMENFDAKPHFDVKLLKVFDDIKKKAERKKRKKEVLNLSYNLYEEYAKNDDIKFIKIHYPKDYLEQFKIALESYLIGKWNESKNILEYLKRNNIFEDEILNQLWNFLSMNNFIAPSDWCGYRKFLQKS
# B1: PfACβ (adenylyl cyclase-β) (Plasmodium falciparum 3D7) (protein)
# chain: T1 sequence (C0H4R1 1-785)
# notes: GST-PfACβ1-785 (catalytic domains, AA 1–785)
# What was measured:
# [1] = molecular target: T1, PfACβ (adenylyl cyclase-β); experiment: radioactive two-column adenylyl cyclase assay with purified GST-PfACβ[…]-785; type: biochemical
# PfACα = molecular target: T2, PfACα; experiment: adenylyl cyclase activity in PfACα-expressing Hi5 cells, […] 2-CE; type: cell-based
# [2] = substrate: Nc1ncnc2c1ncn2[C@@H]1O[C@H](COP(=O)(O)OP(=O)(O)OP(=O)(O)O)[C@@H](O)[C@H]1O; experiment: Michaelis-Menten kinetics (Km), adenylyl cyclase assay with purified enzyme; type: biochemical, Plasmodium falciparum; conditions: Mn2+ active site; lack of cooperative binding of substrate
molecule,measurement,setting,value
CC(Sc1nc2ccccc2[nH]1)C(=O)N/N=C/c1cc(Br)ccc1O (racemic) [KH7],IC50,[1]; read-out: IC50,5 µM
"C[C@]12CC[C@@H]3c4cc(O)c(O)cc4CC[C@H]3[C@@H]1CC[C@@H]2O [2-CE, 2-hydroxyestradiol]","adenylyl cyclase activity in PfACα-expressing Hi5 cells, 50 μM 2-CE",PfACα,"although PfACα adenylyl cyclase activity was inhibited by 2-CE, it was largely insensitive to KH7 (Figure 4C)"
same,IC50,[1],8 µM
KH7.15,IC50,[1]; read-out: IC50,150 µM
B1,Km,[2],570 µM
